# Assay results as given in patent US9290486B1, “Compositions and methods for the treatment of epilepsy” (CELLIX BIO PRIVATE LIMITED, priority 2014, dated 2016).
# Like-named read-outs stand apart in the source and are kept apart here.
# Assay: Blood and cerebrospinal fluid pharmacokinetics after acute intraperitoneal administration in freely moving rats
# Format: in vivo
# Details: for serum and CSF concentrations versus dose: intraperitoneal, 20, 40 and 80 mg/kg; for Elimination half-life (t1/2)-CSF (Mean) / penetration of the blood brain barrier / Elimination half-life (t1/2)-Serum (Mean): intraperitoneal; for penetration of the blood brain barrier: appearance in serum and CSF; for Tmax: rat, ip, acute intraperitoneal, 20, 40 and 80 mg/kg
# Experimental: Blood and Cerebrospinal Fluid Pharmacokinetics in Comparison of the Levetiracetam and Formula II (2-1) in Rats
# The temporal pharmacokinetic interrelationship of levetiracetam and Formula II (2-1) in blood and cerebrospinal fluid (CSF) was studied after acute intraperitoneal administration of levetiracetam and Formula II (2-1), (20, 40 and 80 mg/kg), using an animal model that permits concurrent blood and CSF sampling in freely moving rats.
# [1] = cerebrospinal fluid, read-out: Tmax mean range, CSF
# [2] = serum, read-out: time to maximum concentration (Tmax) mean range, serum
SMILES,serum and CSF concentrations versus dose,Elimination half-life (t1/2)-CSF (Mean) [h],penetration of the blood brain barrier,Elimination half-life (t1/2)-Serum (Mean) (serum) [h],Tmax [1] [h],Tmax [2] [h]
CC[C@@H](C(=O)NC(=O)OC(C)OC(=O)CCCC[C@@H]1CCSS1)N1CCCC1=O (stereo partly drawn) [Formula II (2-1)],rose essentially linearly and dose-dependently,4.8 to 5.6,ready penetration of the blood brain barrier,2.3 to 3.4,2.14 to 2.83,0.47 to 0.89
CC[C@@H](C(N)=O)N1CCCC1=O [levetiracetam],rose essentially linearly and dose-dependently,4.4 to 4.9,ready penetration of the blood brain barrier,1.8 to 2.8,1.33 to 1.92,0.25 to 0.5
